Reference: PMC10492782, “Exploiting the aggregation propensity of beta-lactamases to design inhibitors that induce enzyme misfolding” (Nature Communications, 2023)

Columns and labels:
Assay type in all cases: cell-based, Escherichia coli
E. coli TEM-30 = details: for Interoretation: E. coli TEM-30; for Interpretation: VITEK 2 AST card
Method: (§1) Beta-lactamase clinical samples were collected from University Hospitals Leuven and tested for ESBL production using the disk diffusion method. The beta-lactamase reference isolates were purchased from International Health Management Associates (IHMA). Bacterial strains were cultivated in Mueller–Hinton Broth (MHB, Difco) at 37 °C. Whenever required, growth media were supplemented with appropriate antibiotics to the medium or plates (kanamycin 30 µg/mL, L-arabinose 0.5 mg/mL, and IPTG […]). Escherichia coli BL21 (ThermoFisher Scientific, Belgium) was used for cloning and plasmid amplification. For the selection of antibiotic resistant colonies, E. coli carrying plasmids was grown in LB agar plates supplemented with the relevant antibiotic. Bacterial CFU counting was done on blood agar plates (BD Biosciences, Belgium) or MHA agar plates. Species identification and antibiograms for all clinical isolates were performed using MALDI-Tof and VITEK® 2 automated system (BioMérieux, France).
(§2) Khodaparast et al Supplementary data
(§3) study. […] Abbreviations: S,
(§4) susceptible; I, intermediate; R, resistant.

E. coli TEM-16 = assay: VITEK 2 AST antimicrobial susceptibility testing; details: for Interoretation: E. coli TEM-16; for Interpretation: VITEK 2 AST card
Method: as §1, §2, §3, §4

E. coli TEM-206 = assay: VITEK 2 AST antimicrobial susceptibility testing; details: for Interoretation: E. coli TEM-206; for Interpretation: VITEK 2 AST card
Method: as §1, §2, §3, §4

E. coli NDM5b = assay: VITEK 2 AST antimicrobial susceptibility testing; details: for Interoretation: E. coli NDM5b; for Interpretation: VITEK 2 AST card
Method: as §1, §2, §3, §4

E. coli TEM-104 = assay: VITEK 2 AST antimicrobial susceptibility testing; details: for Interoretation: E. coli TEM-104; for Interpretation: VITEK 2 AST card
Method: as §1, §2, §3, §4

E. coli NDM5a = assay: VITEK 2 AST antimicrobial susceptibility testing; details: for Interoretation: E. coli NDM5a; for Interpretation: VITEK 2 AST card
Method: as §1, §2, §3, §4

E. coli SHV1 (APHA) = assay: VITEK 2 AST antimicrobial susceptibility testing; details: for Interoretation: E. coli SHV154; for Interpretation: VITEK 2 AST card
Method: as §1, §2, §3, §4

E. coli TEM-148 = assay: VITEK 2 AST antimicrobial susceptibility testing; details: for Interoretation: E. coli TEM-148; for Interpretation: VITEK 2 AST card
Method: as §1, §2, §3, §4

Compound: NCC[C@H](O)C(=O)N[C@@H]1C[C@H](N)[C@@H](O[C@H]2O[C@H](CN)[C@@H](O)[C@H](O)[C@H]2O)[C@H](O)[C@H]1O[C@H]1O[C@H](CO)[C@@H](O)[C@H](N)[C@H]1O [Amikacin]
- Interoretation (E. coli TEM-30): S
- Interpretation (E. coli TEM-30): S
- Interoretation (E. coli TEM-16): S
- Interpretation (E. coli TEM-16): S
- Interoretation (E. coli TEM-206): S
- Interoretation (E. coli NDM5b): S
- Interpretation (E. coli NDM5b): S
- Interoretation (E. coli TEM-104): S
- Interpretation (E. coli TEM-104): S
- Interoretation (E. coli NDM5a): S
- Interpretation (E. coli NDM5a): S
- Interoretation (E. coli SHV1 (APHA)): S
- Interpretation (E. coli SHV1 (APHA)): S
- Interoretation (E. coli TEM-148): S
- Interpretation (E. coli TEM-148): S

Compound: C=CC1=C(C(=O)O)N2C(=O)[C@@H](NC(=O)/C(=N\OCC(=O)O)c3csc(N)n3)[C@H]2SC1 [Cefixime]
- Interoretation (E. coli TEM-30): *I
- Interpretation (E. coli TEM-30): *I
- Interoretation (E. coli TEM-16): R
- Interpretation (E. coli TEM-16): R
- Interoretation (E. coli TEM-206): R
- Interpretation (E. coli TEM-206): R
- Interoretation (E. coli NDM5b): R
- Interpretation (E. coli NDM5b): R
- Interoretation (E. coli TEM-104): S
- Interpretation (E. coli TEM-104): S
- Interoretation (E. coli NDM5a): R
- Interpretation (E. coli NDM5a): R
- Interoretation (E. coli SHV1 (APHA)): R
- Interpretation (E. coli SHV1 (APHA)): R
- Interoretation (E. coli TEM-148): *I
- Interpretation (E. coli TEM-148): *I

Compound: CO/N=C(\C(=O)N[C@@H]1C(=O)N2C(C(=O)O)=C(COC(C)=O)CS[C@H]12)c1csc(N)n1 [Cefotaxime]
- Interoretation (E. coli TEM-30): R
- Interpretation (E. coli TEM-30): R
- Interoretation (E. coli TEM-16): R
- Interpretation (E. coli TEM-16): R
- Interoretation (E. coli TEM-206): R
- Interpretation (E. coli TEM-206): R
- Interoretation (E. coli NDM5b): R
- Interpretation (E. coli NDM5b): R
- Interoretation (E. coli TEM-104): S
- Interpretation (E. coli TEM-104): S
- Interoretation (E. coli NDM5a): R
- Interpretation (E. coli NDM5a): R
- Interoretation (E. coli SHV1 (APHA)): R
- Interpretation (E. coli SHV1 (APHA)): R
- Interoretation (E. coli TEM-148): R
- Interpretation (E. coli TEM-148): R

Compound: CO[C@@]1(NC(=O)Cc2cccs2)C(=O)N2C(C(=O)O)=C(COC(N)=O)CS[C@@H]21 [Cefoxitin]
- Interoretation (E. coli TEM-30): S
- Interpretation (E. coli TEM-30): S
- Interoretation (E. coli TEM-16): S
- Interpretation (E. coli TEM-16): S
- Interoretation (E. coli TEM-206): S
- Interpretation (E. coli TEM-206): S
- Interoretation (E. coli NDM5b): R
- Interpretation (E. coli NDM5b): R
- Interoretation (E. coli TEM-104): S
- Interpretation (E. coli TEM-104): S
- Interoretation (E. coli NDM5a): R
- Interpretation (E. coli NDM5a): R
- Interoretation (E. coli SHV1 (APHA)): R
- Interpretation (E. coli SHV1 (APHA)): R
- Interoretation (E. coli TEM-148): S
- Interpretation (E. coli TEM-148): S

Compound: CC(C)(O/N=C(\C(=O)N[C@@H]1C(=O)N2C(C(=O)[O-])=C(C[n+]3ccccc3)CS[C@H]12)c1csc(N)n1)C(=O)O [Ceftazidime]
- Interoretation (E. coli TEM-30): *I
- Interpretation (E. coli TEM-30): *I
- Interoretation (E. coli TEM-16): R
- Interpretation (E. coli TEM-16): R
- Interoretation (E. coli TEM-206): R
- Interpretation (E. coli TEM-206): R
- Interoretation (E. coli NDM5b): R
- Interpretation (E. coli NDM5b): R
- Interoretation (E. coli TEM-104): S
- Interpretation (E. coli TEM-104): S
- Interoretation (E. coli NDM5a): R
- Interpretation (E. coli NDM5a): R
- Interoretation (E. coli SHV1 (APHA)): R
- Interpretation (E. coli SHV1 (APHA)): R
- Interoretation (E. coli TEM-148): *I
- Interpretation (E. coli TEM-148): *I

Compound: CO/N=C(\C(=O)N[C@@H]1C(=O)N2C(C(=O)OC(C)OC(C)=O)=C(COC(N)=O)CS[C@H]12)c1ccco1 (some centres unmarked) [Cefuroxime Axetil]
- Interoretation (E. coli TEM-30): R
- Interpretation (E. coli TEM-30): R
- Interoretation (E. coli TEM-16): R
- Interpretation (E. coli TEM-16): R
- Interoretation (E. coli TEM-206): R
- Interpretation (E. coli TEM-206): R
- Interoretation (E. coli NDM5b): R
- Interpretation (E. coli NDM5b): R
- Interoretation (E. coli TEM-104): S
- Interpretation (E. coli TEM-104): S
- Interoretation (E. coli NDM5a): R
- Interpretation (E. coli NDM5a): R
- Interoretation (E. coli SHV1 (APHA)): R
- Interpretation (E. coli SHV1 (APHA)): R
- Interoretation (E. coli TEM-148): R
- Interpretation (E. coli TEM-148): R
